Patent US9492554B2, “Methods and compositions related to viral inhibition” (Clemson University Research Foundation (CURF), priority 2009, dated 2016)
Read-outs that look alike come from different tables or passages of the source.

How the values were obtained:
TAR [1] = settings: argininamide binding site of TAR; read-out: binding constant; cited from earlier work
TAR RNA [2] = assay: UV melting of TAR RNA in presence of ligands (Tm, ΔTm); assay type: binding, HIV-1; settings: Melting point stabilization of HIV-TAR RNA by Neo Neo dimers; Table 11
Protocol: The reactions were done in the presence of 10 mM sodium cacodylate, 0.5 mM EDTA, 0.1 mM MgCl2 pH 7.0. The heating rate was 0.3° C./min.
(§1) UV melting studies of TAR were performed in the presence and absence of various ligands (FIG. 13).

TAR [3] = settings: ligands to TAR, from UV melting studies
Protocol: The bottom line represents the control which is TAR without any ligands. […] The reactions were done in the presence of 10 mM sodium cacodylate, 0.5 mM EDTA, 0.1 mM MgCl2 pH 7.0. The heating rate was 0.3° C./min.
as §1

TAR RNA [4] = settings: inhibition of Tat peptide binding to the TAR RNA; cited from earlier work
TAR RNA [5] = assay: ITC titration of TAR RNA with Neomycin; assay type: binding, HIV-1; settings: 20° C.
HIV = assay: Protection from HIV cytopathic effects; assay type: cell-based; settings: for Maximum protection: maximum protection from HIV cytopathic effects, water control 2%; for concentration at which maximum protection achieved, microM: value in parentheses beside maximum protection
TAR [6] = settings: binds TAR; read-out: affinity; cited from earlier work
HIV-1 TAR RNA = HIV-1 TAR RNA competition FRET binding assay (Tat peptide probe); settings: 100 nM TAR RNA, 100 nM Tat peptide, 25° C., 60 min
Protocol: Before used, HIV-1 TAR RNA (5′-GGC AGA UCUGAG CCU GGG AGC UCU CUG CC-3′, Thermo Scientific) in 10 μM batch in sterile water was heated to 95° C. for 4.5 min, and then cooled rapidly in ice bath for 5 min. This snap-cooling causes the RNA to adopt the kinetically favored hairpin rather than thermodynamically favored duplexes.
The relative affinity of each polyamine for HIV-1 TAR RNA was determined using Fluorescence Resonance Energy Transfer (FRET)-based competitive binding assay with a fluorescein-labeled HIV-1 Tat peptide as described in the literature. The fluorescence experiments were performed with a Spectra Max Fluorimeter (Molecular Devices) at 25° C., with excitation and emission wavelengths of 495 and 570 nm, respectively. All samples were prepared in 96 well plates in 1×TK buffer (50 mM Tris, 20 mM KCl, pH=7.4) with 0.1% Trixton-100 (Sigma).
To a solution of 100 nM HIV-1 TAR RNA and 100 nM fluorescein-labeled HIV-1 Tat peptide, appropriate concentrations (0 nM to 100 μM) of the antagonists were added at 25° C.; total volume of the incubation solution was 80 μL. After 60 min, fluorescence changes of the sample solution were determined by the Spectra Max Fluorimeter Detector.

HIV-1 RRE RNA = HIV-1 RRE RNA competition binding assay (fluorescence polarization, Rev peptide probe); settings: 100 nM RRE RNA, 10 nM Rev peptide, 25° C., 1 hour; Table 16
Protocol: Before used, HIV-1 RRE RNA (5′-GGUCUGGGCGCAGCGCAAGCUGACGGUACAGGCC-3′, Thermo Scientific) in 10 μM batch in sterile water was heated to 95° C. for 3 min, and then cooled to ambient temperature over 1 hour.
The relative affinity of each compound for HIV-1 RRE RNA was determined using fluorescence polarization-based competitive binding assay with a fluorescein-labeled HIV-1 Rev peptide. The anisotropy experiments were performed with a Spectra Max Fluorimeter (Molecular Devices) at 25° C., with excitation and emission wavelengths of 485 and 525 nm, respectively. All samples were prepared in 96 well plates in binding buffer (30 mM Hepes, 100 mM KCl, 40 mM NaCl, 10 mM NH4OAc, 10 mM Guanidinium Hydrochloride, 2 mM MgCl2, 0.5 mM EDTA, pH 7.4) with 0.01% triton-X100 (Sigma). The binding data reported for each conjugate are the averages of 3˜5 individual measurements.
A solution of 100 nM RRE RNA and 10 nM fluorescein-labeled HIV-1 Rev peptide was incubated at 25° C. After 10 min, appropriate concentrations (0 nM to 500 μM) of the antagonists were added; total volume of the incubation solution was […]. After 1 hour, the amount of the dissociated fluorescent probe was determined by the Spectra Max fluorescence plate reader. The experimental dose-response data for a given antagonist were fit to a sigmoidal dose-response nonlinear regression model on GraphPad Prism 4.0 to afford the IC50 values for each conjugates (Table 16).

cells = assay: 5% Toxicity concentration (concentration at which 5% or less cell death is seen)
[7] = molecular target: site 1 thymidylate synthetase RNA; settings: CC bubble of site 1 thymidylate synthetase RNA; read-out: binding constant; cited from earlier work

For `N=C(N)NCCC[C@H](N)C(N)=O` [argininamide], the Kd (TAR [1]) is listed as ~0.001 µM.

In the case of neomycin, the ΔTm (TAR RNA [2]) is listed as 0.2 °C, the “Binding Constant” value (TAR [3]) is listed as 170000 M⁻¹ and the IC50 (TAR RNA [4]) is listed as 0.92 ± 0.09 µM. For the same molecule, the K (TAR RNA [5]) was “(6.61 ± 0.84) × 10^5”, the Maximum protection (HIV) was 9% and the “concentration at which maximum protection achieved, microM” value (HIV) was “(206) microM”. For the same molecule, the Kd (TAR [6]) was ~6 µM and the IC50 (HIV-1 TAR RNA; Table 17) was 0.713 ± 0.165 µM.

In the case of `[H]/N=C(/N)N[C@H]1[C@H](O)[C@@H](O)[C@H](O[C@@H]2O[C@@H](C)[C@](O)(C=O)[C@H]2O[C@@H]2O[C@@H](CO)[C@H](O)[C@@H](O)[C@@H]2NC)[C@@H](N/C(N)=N\[H])[C@@H]1O` [DPA 506, streptomycin, reference compound], the IC50 (TAR RNA [4]) is listed as 9.5 ± 0.8 µM, the IC50 (HIV-1 RRE RNA) is listed as > 500 µM and the IC50 (HIV-1 TAR RNA; Table 18) is listed as 17.4 ± 4.3 µM.

For `CN1CCN(c2ccc3[nH]c(-c4ccc5[nH]c(-c6ccc(O)cc6)nc5c4)nc3c2)CC1` [Hoechst 33258], the “5% Toxicity microM” value (cells) is given as 18 µM, the Kd [7] is given as < 0.1 µM and the “Binding Constant” value (TAR [3]) is given as 420000 M⁻¹. The Maximum protection (HIV) was 2%, the “concentration at which maximum protection achieved, microM” value (HIV) was “(2) microM” and the IC50 (HIV-1 TAR RNA; Table 17) was 6.6 ± 1.5 µM.
